Patent US20110288154A1, “RNA Interference Mediated Inhibition of Epithelial Sodium Channel (ENaC) Gene Expression Using Short Interfering Nucleic Acid (siNA)” (MERCK & CO., INC., priority 2008, published 2011)

What was measured:
[1] = tested on: human ENaCα mRNA; assay: ENaCα mRNA knockdown and EC50 in human normal bronchial epithelial cells (NHBEs); type: cell-based; conditions: 48 hrs post transfection, n = 3 donors; for EC50: nine point dose range 0.01-100 nM
Method: Human Bronchial Epithelial cells (NHBE cells) obtained from Lonza (Cat. No. CC-2540) were grown at 37 deg in the presence of 5% CO2 and cultured in BEBM basal medium (Lonza, Cat. No. CC-3171) on Biocoat Collagenl coated flasks (Becton Dickinson).
mRNA Knockdown and EC50 in NHBEs: Cells were plated in collagen 1 coated plates and cultured in appropriate culture media. The cells were cultured for 24 hours after plating at 37 deg in the presence of 5% CO2. siNAs were diluted in OptiMEM 1 to 1 uM and the delivery lipid GSK212357A to 25 ug/ml. For formulation of the siNAs equal volumes of the diluted siNA and delivery lipid were combined and incubated for 20 minutes at room temperature. Cells were meanwhile trypsinised and resuspended in antibiotic free BEBM media at 150,000 cells/ml. 20 ul of the formulated siNA and 80 ul of BEBM media was added per well of a 96 well plate (6 replicates/data point/siRNA concentration) so as to give a nine point dose range of the siRNAs (100 nM, 30 nM, 10 nM, 3 nM, 1 nM, 0.3 nM, 0.1 nM, 0.03 nM, 0.01 nM). The time of incubation with the GSK212357A-siNA complexes were 48 hours with one change of media at 24 hours.
RNA Isolation 96 well Plate: Total RNA was isolated from the cells in the 96-well plate format using the Automated SV96 Total RNA Isolation System (Promega) according to the manufacturer's instructions. The Biomek 2000 Laboratory Automation Workstation (Beckman Coulter) was used to apply the transfected cell lysates to a silica membrane. RNase-Free DNase I was then applied directly to the silica membrane to digest contaminating genomic DNA. The bound total RNA was further purified from contaminating salts, proteins and cellular impurities by simple washing steps. Finally, total RNA was eluted from the membrane by the addition of Nuclease-Free Water.
(§1) Quantitative RT-PCR (TaqMan): A series of probes and primers were used for the detection of mRNA transcripts of ENaCα, OAS1, IL8 and GAPDH (as control/normalisation) in the human cell lines. The assays were performed on an ABI 7900HT instrument according to the manufacturer's instructions. Primer Probe sets used GAPDH Forward 5′-[…]-3 (SEQ ID NO: 128), ‘Reverse 5’-GGGCCATCCACAGTCTTCT-3′ (SEQ ID NO: 129), Probe 5′ d FAM-[…]-TAMRA 3′ (SEQ ID NO: 130), ENaCa Forward 5′-[…]-3′ (SEQ ID NO: 131), Reverse 5′-[…]-3′ (SEQ ID NO: 132), Probe 5′ d FAM-[…]-TAMRA 3′ (SEQ ID NO: 133), OAS1 Forward 5′-[…]-3′ (SEQ ID NO: 134), Reverse 5′-[…]-3′ (SEQ ID NO: 135), Probe 5′ d FAM-[…]-TAMRA 3′ (SEQ ID NO: 136), IL8 Forward 5′-CTGGCCGTGGCTCTCTTG-3′ (SEQ ID NO: 137), Reverse 5′-[…]-3′ (SEQ ID NO: 138), Probe 5′ d FAM-[…]-TAMRA 3′ (SEQ ID NO: 139).
TaqMan: Critical threshold values (Ct) were converted to copy numbers corresponding to the particular gene analysed in each well of the 384 well plate. Six identical wells were prepared in each plate for a given treatment. […] Determination of the percentage coefficient of variation (CV) (% C.V.=[standard deviation/average]*100) allowed the omitting of wells whose value was an outlier (so that % C.V.<25). Relative abundance (aka relative expression) of a gene was determined by dividing the mean copy number of that gene with its GAPDH counterpart in that particular sample.
EC50 values were calculated from the data using sigma plot. All calculations of the efficacy and potency of the siNAs were done relative to the non-targeting control siNA.

[2] = tested on: ENaC; assay: FLIPR assay of sodium transport in recombinant HEK cells over expressing ENaC; type: cell-based, human; conditions: FLIPR, n = 6, mean of 3 independent experiments
Method: (§2) Recombinant HEK293 cell line (expressing ENaC beta & gamma) SCNN1B (P618AY620L)+SCNN1G (P624stop) #24. were grown at 37 deg in the presence of CO2 and were cultured in M1 medium M1+0.5 mg/ml geneticin and 0.2 mg/ml hygromycin.
(§3) Functional Effects on ENaC via FLIPR in Cells Over Expressing ENaCa: A reverse transfection methodology was used to transfect the HEK recombinant cell line. 5 ul of siRNA (diluted in Optimem to the appropriate concentration) was mixed with 5 ul of the Gemini lipid transfection reagent diluted in Optimem in 384 well non-coated FLIPR plate. Plates were incubated at room temperature for 20 minutes to allow complex formation. Cells were harvested, spun down, diluted to 3×10^5/ml and plated out at 40 ul/well (12K/well) in 384 well plate format containing the transfection complex. The plates were incubated overnight for 20 hours. The cells were then transduced with BacMam virus expressing ENaC alpha (BacMam viruses expressing SCNN1A, GRITS 29703, titre 0.356×10^8/ml). 30 ul of virus was added (1.7%) 20K/well, MOI was approximately 1. Cells were incubated for 24 hours. On day of the FLIPR assay, media was aspirated, leaving 10 ul volume. 20 ul of dye per well was loaded (FMP2 Blue dye, R8181, MDS. For each pot, 133 ml Tyrodes buffer was diluted to make 1× stock prior to assay). The plate was incubated for 0.5 hours at room temperature and 10 ul of the compound added on-line prior to FLIPR read (FLIPR settings: protocol Na MP.fcf, with Exposure length 0.4 sec and Filter #2). Compound plate: 1 ul volume, column 1, 2 and 3 are 16, 4 and 0 uM amiloride final (1/200 dilution) (IC80, IC50 and ctrl).

[3] = tested on: ENaC-alpha mRNA; assay: ENaC-alpha mRNA knockdown in recombinant HEK cells of the FLIPR assay; type: cell-based, human; conditions: n = 6, mean of 3 independent experiments
Method: as §2, §3
RNA isolation 384 well Plate: Extract mRNA using Qiagen Turbo Capture RNA preparation kit, following manufacturer's instructions.
as §1

[4] = final siNA concentration 100 nM

Substance | Maximum mRNA knockdown NHBEs [1] [%] | EC50 [1] [nM] | % Inhibition of Maximal Response (4 uM amiloride) ([2]; final siNA concentration 10 nM) [%] | % Inhibition of Maximal Response (16 uM amiloride) ([2]; final siNA concentration 10 nM) [%] | % Inhibition of Maximal Response (4 uM amiloride) ([2]; final siNA concentration 20 nM) [%] | % Inhibition of Maximal Response (16 uM amiloride) ([2]; final siNA concentration 20 nM) [%] | % Inhibition of Maximal Response (4 uM amiloride) ([2]; final siNA concentration 50 nM) [%] | % Inhibition of Maximal Response (16 uM amiloride) ([2]; final siNA concentration 50 nM) [%] | % Inhibition of Maximal Response (4 uM amiloride) [2, 4] [%] | % Inhibition of Maximal Response (16 uM amiloride) [2, 4] [%] | % ENaC-alpha mRNA knockdown ([3]; final siNA concentration 10 nM) [%] | % ENaC-alpha mRNA knockdown ([3]; final siNA concentration 20 nM) [%] | % ENaC-alpha mRNA knockdown ([3]; final siNA concentration 50 nM) [%] | % ENaC-alpha mRNA knockdown [3, 4] [%]
B GuGuGGcuGuGccuAcAuc TTB / GAUGuAGGcAcAGccAcAcUU (sense GUGUGGCUGUGCCUACAUCTT; antisense GAUGUAGGCACAGCCACACUU; siRNA; B caps on sense ends, letter-case modifications not given here, further chemistry not given here) [Site 1383] | 64 | 4.9 |  |  |  |  |  |  |  |  |  |  |  | 
B uuAuGGAuGAuGGuGGcuu TTB / AAGccAccAucAuccAuAAUU (sense UUAUGGAUGAUGGUGGCUUTT; antisense AAGCCACCAUCAUCCAUAAUU; siRNA; B caps on sense ends, letter-case modifications not given here, further chemistry not given here) [Site 1181] | 78 | 1.59 | 43.8 | 45.8 | 48.9 | 51.4 | 62.2 | 65.5 | 77.5 | 77.5 | 52.6 | 65.6 | 76.1 | 76.9
B uGuGcAAccAGAAcAAAuc TTB / GAUuuGuucuGGuuGcAcAUU (chain 1 UGUGCAACCAGAACAAAUCTT; chain 2 GAUUUGUUCUGGUUGCACAUU; siRNA; B caps on sense ends, letter-case modifications not given here, further chemistry not given here) [Site 782] | 79 | 0.47 | 37.1 | 40.8 | 41.4 | 47.9 | 52.5 | 59.7 | 81.5 | 85.2 | 61.7 | 67.7 | 75.1 | 73.1
B GcuGuGccuAcAucuucuA TTB / UAGAAGAuGuAGGcAcAGcUU (sense GCUGUGCCUACAUCUUCUATT; antisense UAGAAGAUGUAGGCACAGCUU; siRNA; B caps on sense ends, letter-case modifications not given here, further chemistry not given here) [Site 1388] | 79 | 4.2 |  |  |  |  |  |  |  |  |  |  |  | 
